Converted amounts (≈) assume the structure as drawn.
What was measured:
Format in all cases: functional, organism-based
Plasmodium falciparum [1] = experiment: Inhibitory concentration (IC50) against chloroquine-sensitive falciparum sierra leone […] in human malaria; 10000-46608
Plasmodium falciparum [2] = experiment: Inhibitory concentration IC50 against chloroquine-resistant falciparum indochina(W-2) malaria in humans; 7079-48759
Plasmodium falciparum [3] = experiment: Inhibitory concentration (IC50) against chloroquine-sensitive falciparum sierra leone […] in human malaria
Plasmodium falciparum [4] = experiment: Inhibitory concentration (IC50) against chloroquine-resistant falciparum Indochina W2 in human malaria
Plasmodium falciparum [5] = experiment: Inhibitory concentration (IC50) against chloroquine-sensitive falciparum sierra leone […] in human malaria; 979-50000
Plasmodium falciparum [6] = experiment: Inhibitory concentration (IC50) against chloroquine-resistant falciparum indochina W-2 in human malaria; 60-50000
Plasmodium falciparum [7] = experiment: Inhibitory concentration (IC50) against chloroquine-sensitive falciparum sierra leone […] in human malaria; 9569-21648
Plasmodium falciparum [8] = experiment: Inhibitory concentration IC50 against chloroquine-resistant falciparum W-2 indochina human malaria; 8000-18088
[9] = Plasmodium falciparum, read-out: IC50

CO[C@]1(C)CC[C@@H](OO)CO1 showed an IC50 (Plasmodium falciparum [1]) of 10 µg/mL (≈ 61.7 µM) and an IC50 (Plasmodium falciparum [2]) of 7.08 µg/mL (≈ 43.6 µM).

CC12CCC(CO1)OO2 (stereo unspecified) gave an IC50 (Plasmodium falciparum [3]) of 50 µg/mL (≈ 384 µM) and an IC50 (Plasmodium falciparum [4]) of over 100 µg/mL.

C1CC2OCC1OO2 (stereo unspecified) was tested, and the IC50 (Plasmodium falciparum [5]) was 0.979 µg/mL (≈ 8.43 µM) and the IC50 (Plasmodium falciparum [6]) was 0.06 µg/mL (≈ 0.517 µM).

With COC1CC[C@@H]([C@H](C)O)OO1 (stereo partly specified) the IC50 (Plasmodium falciparum [3]) was 7.35 µg/mL (≈ 45.3 µM) and the IC50 (Plasmodium falciparum [4]; [9]) was 12.3 µg/mL (≈ 75.7 µM).

With COC1CCC(CO)OO1 (stereo unspecified) the IC50 (Plasmodium falciparum [3]) was 0.531 µg/mL (≈ 3.58 µM) and the IC50 (Plasmodium falciparum [4]; [9]) was 0.454 µg/mL (≈ 3.06 µM).

Work on C[C@@H]1OC2CCC1OO2 (stereo partly specified) yielded an IC50 (Plasmodium falciparum [3]) of 28.5 µg/mL (≈ 219 µM) and an IC50 (Plasmodium falciparum [4]; [9]) of 28.8 µg/mL (≈ 222 µM).

C[C@H]1OC2CCC1OO2 (stereo partly specified) showed an IC50 (Plasmodium falciparum [3]) of 8.46 µg/mL (≈ 65 µM) and an IC50 (Plasmodium falciparum [4]; [9]) of 13.1 µg/mL (≈ 101 µM).

COC1CCC(OO)CO1 (stereo unspecified) showed an IC50 (Plasmodium falciparum [3]) of 0.472 µg/mL (≈ 3.19 µM) and an IC50 (Plasmodium falciparum [4]; [9]) of 1.05 µg/mL (≈ 7.06 µM).

For CO[C@H]1CC[C@@H](OO)[C@@H](C)O1, the IC50 (Plasmodium falciparum [7]) was 9.57 µg/mL (≈ 59 µM) and the IC50 (Plasmodium falciparum [8]) was 8 µg/mL (≈ 49.3 µM).

In the case of CO[C@H]1CC[C@H](OO)[C@@H](C)O1, the IC50 (Plasmodium falciparum [3]) is reported as 1.01 µg/mL (≈ 6.2 µM) and the IC50 (Plasmodium falciparum [4]; [9]) is reported as 3.44 µg/mL (≈ 21.2 µM).

C[C@@H]1CC[C@H]2[C@@H](C)C(=O)O[C@@H]3O[C@@]4(C)CC[C@@H]1[C@]32OO4 [ARTEMISININ] gave an IC50 (Plasmodium falciparum [3]) of 0.00202 µg/mL (≈ 0.00715 µM).

Source: ChEMBL document CHEMBL1152074, “Synthesis and antimalarial evaluation of 2,3,5-trioxabicyclo[2.2.2]octanes, models for the putative pharmacophore of qinghaosu (artemisinin)” (Bioorg Med Chem Lett, 1992)
